According to ChEMBL document CHEMBL1131665, “Rapid synthesis of RGD mimetics with isoxazoline scaffolds on solid phase: identification of alphavbeta3 antagonists lead compounds” (Bioorg Med Chem Lett, 1999):

Columns and labels:
Type in all cases: functional
[1] = molecular target: Integrin alpha-IIb/beta-3 (Homo sapiens, UniProt P05106+P08514); test: Antagonistic activity against fibrinogen receptor
[2] = molecular target: Integrin alpha-V/beta-3 (Homo sapiens, UniProt P05106+P06756); test: Antagonistic activity against vitronectin receptor
[3] = Antagonistic activity against Vitronectin receptor protein ( alpha v beta 3 ) by ELISA assay

Sequence of Integrin alpha-V/beta-3 (P05106 27-788 limits assumed): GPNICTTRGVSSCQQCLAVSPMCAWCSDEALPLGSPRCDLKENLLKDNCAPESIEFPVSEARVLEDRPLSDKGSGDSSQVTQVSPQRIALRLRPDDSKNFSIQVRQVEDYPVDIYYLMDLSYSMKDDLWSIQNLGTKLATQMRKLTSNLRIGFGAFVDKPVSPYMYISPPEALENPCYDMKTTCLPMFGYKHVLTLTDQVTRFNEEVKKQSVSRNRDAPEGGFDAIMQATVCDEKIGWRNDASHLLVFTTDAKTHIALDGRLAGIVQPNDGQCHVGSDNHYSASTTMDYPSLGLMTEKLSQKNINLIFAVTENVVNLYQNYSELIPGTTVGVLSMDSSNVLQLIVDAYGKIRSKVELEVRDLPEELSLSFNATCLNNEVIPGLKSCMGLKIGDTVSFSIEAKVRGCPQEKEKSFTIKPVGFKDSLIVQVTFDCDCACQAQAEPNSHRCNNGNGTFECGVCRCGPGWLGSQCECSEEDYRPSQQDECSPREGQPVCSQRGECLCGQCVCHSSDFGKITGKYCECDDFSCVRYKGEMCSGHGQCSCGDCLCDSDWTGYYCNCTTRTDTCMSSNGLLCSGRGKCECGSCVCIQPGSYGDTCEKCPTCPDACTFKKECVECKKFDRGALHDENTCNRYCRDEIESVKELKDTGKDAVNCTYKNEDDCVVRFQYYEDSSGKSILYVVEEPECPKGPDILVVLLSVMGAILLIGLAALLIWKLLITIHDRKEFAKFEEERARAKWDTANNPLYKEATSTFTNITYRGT
Sequence of Integrin alpha-V/beta-3 (P06756 31-889 limits assumed): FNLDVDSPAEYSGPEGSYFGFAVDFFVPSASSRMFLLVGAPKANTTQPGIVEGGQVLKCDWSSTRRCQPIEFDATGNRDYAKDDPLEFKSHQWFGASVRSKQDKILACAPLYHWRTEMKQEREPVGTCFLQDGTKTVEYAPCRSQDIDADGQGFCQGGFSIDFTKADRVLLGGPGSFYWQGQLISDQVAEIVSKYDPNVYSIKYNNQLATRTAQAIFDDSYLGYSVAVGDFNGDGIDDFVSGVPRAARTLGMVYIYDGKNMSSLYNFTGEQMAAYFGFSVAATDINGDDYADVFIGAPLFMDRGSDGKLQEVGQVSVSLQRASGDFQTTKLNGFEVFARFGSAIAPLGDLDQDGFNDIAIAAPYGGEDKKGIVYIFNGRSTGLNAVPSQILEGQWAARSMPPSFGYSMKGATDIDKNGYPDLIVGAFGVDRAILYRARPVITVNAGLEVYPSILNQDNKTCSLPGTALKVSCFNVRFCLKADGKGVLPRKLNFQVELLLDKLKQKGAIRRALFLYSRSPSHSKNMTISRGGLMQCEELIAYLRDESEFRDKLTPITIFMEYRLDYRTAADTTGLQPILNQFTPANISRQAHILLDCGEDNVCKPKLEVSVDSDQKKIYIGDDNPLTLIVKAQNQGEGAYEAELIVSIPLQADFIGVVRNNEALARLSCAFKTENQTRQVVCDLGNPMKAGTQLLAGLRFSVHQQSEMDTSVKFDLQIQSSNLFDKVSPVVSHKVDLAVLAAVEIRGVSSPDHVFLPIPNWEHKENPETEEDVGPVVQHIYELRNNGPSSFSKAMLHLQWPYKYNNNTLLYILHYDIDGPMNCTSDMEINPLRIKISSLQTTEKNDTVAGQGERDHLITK
Sequence of Integrin alpha-V/beta-3 (P06756 891-1048 limits assumed): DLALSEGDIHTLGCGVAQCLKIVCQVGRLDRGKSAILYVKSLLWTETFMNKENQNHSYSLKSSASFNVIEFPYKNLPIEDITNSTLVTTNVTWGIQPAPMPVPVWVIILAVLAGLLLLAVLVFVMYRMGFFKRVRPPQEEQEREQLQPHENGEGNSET
Sequence of Integrin alpha-IIb/beta-3 (P05106 27-788 limits assumed): as the sequence (P05106 27-788 limits assumed) above
Sequence of Integrin alpha-IIb/beta-3 (P08514 32-887 limits assumed): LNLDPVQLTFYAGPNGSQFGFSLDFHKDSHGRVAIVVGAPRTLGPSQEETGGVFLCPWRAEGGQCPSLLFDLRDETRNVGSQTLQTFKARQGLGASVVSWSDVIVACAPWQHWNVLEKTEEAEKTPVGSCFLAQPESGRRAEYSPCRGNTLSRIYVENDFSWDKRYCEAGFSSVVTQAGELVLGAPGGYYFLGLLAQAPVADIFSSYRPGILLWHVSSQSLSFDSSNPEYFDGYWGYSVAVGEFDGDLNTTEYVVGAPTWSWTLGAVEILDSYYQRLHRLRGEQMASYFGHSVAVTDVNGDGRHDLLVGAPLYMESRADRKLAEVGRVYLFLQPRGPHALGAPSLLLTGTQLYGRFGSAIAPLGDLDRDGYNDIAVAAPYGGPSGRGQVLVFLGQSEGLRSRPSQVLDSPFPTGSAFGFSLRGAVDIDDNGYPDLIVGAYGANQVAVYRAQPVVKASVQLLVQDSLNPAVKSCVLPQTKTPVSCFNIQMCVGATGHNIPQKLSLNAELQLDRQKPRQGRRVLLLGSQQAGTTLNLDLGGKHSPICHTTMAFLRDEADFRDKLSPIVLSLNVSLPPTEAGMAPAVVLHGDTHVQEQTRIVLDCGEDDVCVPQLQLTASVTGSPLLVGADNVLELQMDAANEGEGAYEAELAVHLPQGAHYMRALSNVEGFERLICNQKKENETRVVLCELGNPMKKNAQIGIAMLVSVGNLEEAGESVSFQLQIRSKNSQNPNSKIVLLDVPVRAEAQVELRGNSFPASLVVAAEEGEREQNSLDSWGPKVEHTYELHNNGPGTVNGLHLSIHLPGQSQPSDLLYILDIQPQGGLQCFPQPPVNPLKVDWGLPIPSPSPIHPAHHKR
Sequence of Integrin alpha-IIb/beta-3 (P08514 891-1039 limits assumed): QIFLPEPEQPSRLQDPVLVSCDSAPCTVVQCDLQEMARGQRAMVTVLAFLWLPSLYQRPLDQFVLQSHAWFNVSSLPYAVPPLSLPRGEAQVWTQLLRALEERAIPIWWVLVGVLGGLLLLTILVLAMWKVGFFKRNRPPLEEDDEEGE

IC50 [1] [nM]	IC50 [2] [nM]	IC50 [3] [nM]	Compound
13000	710		N=C(N)NCCCCCC1=NOC(C(=O)NC[C@H](NC(=O)OCc2ccccc2)C(=O)O)C1 (stereo partly specified)
3500	16		N=C(N)NCCCCC1CC(C(=O)NC[C@H](NS(=O)(=O)c2cccc3ccccc23)C(=O)O)=NO1 (stereo partly specified)
43000	140		N=C(N)NCCCCC1CC(C(=O)NC[C@H](NS(=O)(=O)c2ccc([N+](=O)[O-])cc2)C(=O)O)=NO1 (stereo partly specified)
55000		81	N=C(N)NCCCCC1=NOC(C(=O)NC[C@H](NC(=O)OCc2ccccc2)C(=O)O)C1 (stereo partly specified)
360	23		N=C(N)NCCCCC1CC(C(=O)NC[C@H](NS(=O)(=O)c2cccs2)C(=O)O)=NO1 (stereo partly specified)
1500	470		N=C(N)NCCCCCC1=NOC(CC(=O)NC[C@H](NC(=O)OCc2ccccc2)C(=O)O)C1 (stereo partly specified)
17000	87		N=C(N)NCCC1CC(CCC(=O)NC[C@H](NC(=O)OCc2ccccc2)C(=O)O)=NO1 (stereo partly specified)
220	2		Cc1cn(C)[n+](Cl)c1S(=O)(=O)N[C@@H](CNC(=O)C1=NOC(CCCCN=C(N)N)C1)C(=O)[O-] (stereo partly specified)
690	8		N=C(N)NCCCCC1CC(C(=O)NC[C@H](NS(=O)(=O)c2ccc(-c3ccccn3)s2)C(=O)O)=NO1 (stereo partly specified)
47000	36		CC(C)(C)c1ccc(S(=O)(=O)N[C@@H](CNC(=O)C2=NOC(CCCCNC(=N)N)C2)C(=O)O)cc1 (stereo partly specified)
	100		N=C(N)NCCCC1=NOC(CCC(=O)NC[C@H](NC(=O)OCc2ccccc2)C(=O)O)C1 (stereo partly specified)
23000	480		N=C(N)NCCC1=NOC(CCC(=O)NC[C@H](NC(=O)OCc2ccccc2)C(=O)O)C1 (stereo partly specified)
460	12		COc1ccc(S(=O)(=O)N[C@@H](CNC(=O)C2=NOC(CCCCN=C(N)N)C2)C(=O)O)cc1 (stereo partly specified)
12000	72		N=C(N)NCCCC1=NOC(CC(=O)NC[C@H](NC(=O)OCc2ccccc2)C(=O)O)C1 (stereo partly specified)
1300	15		N=C(N)NCCCCC1CC(C(=O)NC[C@H](NS(=O)(=O)c2ccc(F)cc2)C(=O)O)=NO1 (stereo partly specified)
12000	900		N=C(N)NCCC1=NOC(CC(=O)NC[C@H](NC(=O)OCc2ccccc2)C(=O)O)C1 (stereo partly specified)

IC50 [1] [nM]	IC50 [2] [nM]	IC50 [3] [nM]	Compound
2600	12		N=C(N)NCCCCC1CC(C(=O)NC[C@H](NS(=O)(=O)c2ccc(Cl)cc2)C(=O)O)=NO1 (stereo partly specified)
170	4		N=C(N)NCCCCC1CC(C(=O)NC[C@H](NS(=O)(=O)c2ccccc2Br)C(=O)O)=NO1 (stereo partly specified)
> 100000	2600		N=C(N)NCCC1=NOC(C(=O)NC[C@H](NC(=O)OCc2ccccc2)C(=O)O)C1 (stereo partly specified)
340	0.7		Cc1cc(C)c(S(=O)(=O)N[C@@H](CNC(=O)C2=NOC(CCCCN=C(N)N)C2)C(=O)O)c(C)c1 (stereo partly specified)
780	11		N=C(N)NCCCCC1CC(C(=O)NC[C@H](NS(=O)(=O)c2ccccc2)C(=O)O)=NO1 (stereo partly specified)
53000	140		N=C(N)NCCCC1CC(C(=O)NC[C@H](NC(=O)OCc2ccccc2)C(=O)O)=NO1 (stereo partly specified)
3600	96		Cn1ccc(S(=O)(=O)N[C@@H](CNC(=O)C2=NOC(CCCCN=C(N)N)C2)C(=O)O)n1 (stereo partly specified)
800	180		N=C(N)NCCCCC1=NOC(CC(=O)NC[C@H](NC(=O)OCc2ccccc2)C(=O)O)C1 (stereo partly specified)
1900	24		N=C(N)NCCCCC1CC(C(=O)NC[C@H](NS(=O)(=O)c2cc(Cl)sc2Cl)C(=O)O)=NO1 (stereo partly specified)
3600	300		N=C(N)NCCCCC1=NOC(CCC(=O)NC[C@H](NC(=O)OCc2ccccc2)C(=O)O)C1 (stereo partly specified)
850	14		Cc1noc(C)c1S(=O)(=O)N[C@@H](CNC(=O)C1=NOC(CCCCN=C(N)N)C1)C(=O)O (stereo partly specified)
> 100000	310		N=C(N)NCC1CC(CCC(=O)NC[C@H](NC(=O)OCc2ccccc2)C(=O)O)=NO1 (stereo partly specified)
7900	7		CN(C)c1cccc2c1ccc[n+]2S(=O)(=O)N[C@@H](CNC(=O)C1=NOC(CCCCN=C(N)N)C1)C(=O)[O-] (stereo partly specified)
	23		N=C(N)NCCCCC1CC(C(=O)NC[C@H](NC(=O)OCc2ccccc2)C(=O)O)=NO1 (stereo partly specified)
	66		N=C(N)NCCC1CC(C(=O)NC[C@H](NC(=O)OCc2ccccc2)C(=O)O)=NO1 (stereo partly specified)
> 100000	110		N=C(N)NCCCC1=NOC(C(=O)NC[C@H](NC(=O)OCc2ccccc2)C(=O)O)C1 (stereo partly specified)
